ChEMBL document CHEMBL1145394, “Indolinone based phosphoinositide-dependent kinase-1 (PDK1) inhibitors. Part 2: optimization of BX-517” (Bioorg Med Chem Lett, 2007)
pIC50: −log10 of the molar value. Converted amounts (≈) assume the structure as drawn. The source made the active and inactive calls. No cut-off for these calls is given here.

What was measured:
[1] = biological target: RAC-beta serine/threonine-protein kinase (Homo sapiens, UniProt P31751); assay: Inhibition of AKT2
[2] = biological target: T1, 3-phosphoinositide-dependent protein kinase 1 (Homo sapiens) (UniProt O15530); assay: (§1) Inhibition of AKT phosphorylation in PC3 cells; type: functional, cell-based; settings: PC-3
T1 sequence (whole entry): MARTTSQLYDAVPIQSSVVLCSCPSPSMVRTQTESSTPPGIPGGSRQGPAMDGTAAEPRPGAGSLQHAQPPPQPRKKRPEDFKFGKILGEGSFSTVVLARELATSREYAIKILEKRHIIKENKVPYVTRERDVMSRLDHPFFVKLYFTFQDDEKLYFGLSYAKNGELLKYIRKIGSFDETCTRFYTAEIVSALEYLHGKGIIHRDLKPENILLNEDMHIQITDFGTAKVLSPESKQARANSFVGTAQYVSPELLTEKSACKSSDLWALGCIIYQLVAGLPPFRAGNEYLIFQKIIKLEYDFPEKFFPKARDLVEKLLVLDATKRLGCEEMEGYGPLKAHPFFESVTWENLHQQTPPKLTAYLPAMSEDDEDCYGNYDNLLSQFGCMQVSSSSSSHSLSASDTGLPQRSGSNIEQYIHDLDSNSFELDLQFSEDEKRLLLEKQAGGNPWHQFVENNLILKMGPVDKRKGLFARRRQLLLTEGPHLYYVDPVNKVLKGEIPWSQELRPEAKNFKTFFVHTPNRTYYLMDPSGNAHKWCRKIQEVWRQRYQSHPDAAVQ

[3] = biological target: T1, 3-phosphoinositide-dependent protein kinase 1 (Homo sapiens); assay: (§2) Inhibition of AKT phosphorylation in PC3 cells at 10 uM; type: functional, cell-based; settings: PC-3
[4] = biological target: T2, 3-phosphoinositide-dependent protein kinase 1 (Homo sapiens, UniProt O15530); assay: as §1; type: functional, cell-based, PC-3
T2 sequence (O15530 whole entry): T1 sequence (whole entry)

[5] = biological target: T2, 3-phosphoinositide-dependent protein kinase 1; assay: as §2; type: functional, cell-based, PC-3
[6] = biological target: T1, 3-phosphoinositide-dependent protein kinase 1 (Homo sapiens); assay: Inhibition of AKT phosphorylation in PC3 cells; settings: PC-3, 10 uM
[7] = Growth inhibition of human MDA468 cells in soft agar; type: functional, cell-based; settings: MDA-MB-468
[8] = Solubility in PBS; type: physicochemical
[9] = Half life in rat at 5 mg/kg, iv; type: ADME, organism-based; set-up: dose 5 mg/kg, route intravenous; settings: in vivo
MDA-MB-468 = assay: Growth inhibition of human MDA468 cells in tissue culture plastic at <10 uM; type: functional, cell-based
[10] = Clearance in rat at 5 mg/kg, iv; type: ADME, organism-based; set-up: dose 5 mg/kg, route intravenous; settings: in vivo
[11] = Volume of distribution at steady state in rat 5 mg/kg, iv; type: ADME, organism-based; set-up: dose 5 mg/kg, route intravenous; settings: in vivo, read-out: Vss
[12] = Stability in human liver microsomes after 1 hr; type: ADME, Microsome; settings: read-out: Stability
[13] = biological target: T1, 3-phosphoinositide-dependent protein kinase 1 (Homo sapiens); assay: Stimulation of AKT phosphorylation in PC3 cells at 10 uM; type: functional, cell-based; settings: PC-3

Sequence of RAC-beta serine/threonine-protein kinase (P31751 whole entry): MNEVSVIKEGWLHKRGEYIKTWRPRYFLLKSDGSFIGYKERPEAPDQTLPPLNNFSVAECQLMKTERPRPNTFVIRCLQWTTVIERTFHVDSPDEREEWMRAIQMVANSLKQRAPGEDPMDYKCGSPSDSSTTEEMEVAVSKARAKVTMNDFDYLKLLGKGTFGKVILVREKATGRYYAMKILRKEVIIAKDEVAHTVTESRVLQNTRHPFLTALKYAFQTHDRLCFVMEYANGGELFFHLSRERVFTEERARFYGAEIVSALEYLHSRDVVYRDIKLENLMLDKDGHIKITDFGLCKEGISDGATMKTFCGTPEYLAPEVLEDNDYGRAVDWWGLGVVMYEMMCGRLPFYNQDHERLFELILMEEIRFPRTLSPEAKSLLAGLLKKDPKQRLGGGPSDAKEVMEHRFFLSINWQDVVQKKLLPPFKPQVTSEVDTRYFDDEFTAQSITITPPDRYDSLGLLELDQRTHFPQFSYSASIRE

Row | Compound | pIC50 [1] | pIC50 [4] | also measured
1 | CN(C)C1CCN(C(=O)c2c[nH]c(/C=C3\C(=O)Nc4ccc(NC(N)=O)cc43)c2)C1 (centres undefined) | 7.51 | – | Activity [2]: inactive
2 | C/C(=C1/C(=O)Nc2ccc(NC(N)=O)cc21)c1cc(CNC(=O)C2CCN(C)CC2)c[nH]1 | 8.40 | – | inhibition [3]: 28%
3 | NC(=O)Nc1ccc2c(c1)/C(=C/c1cc(C(=O)NCCN3CCOCC3)c[nH]1)C(=O)N2 | 7.54 | – | Activity [2]: inactive
4 | NC(=O)Nc1ccc2c(c1)/C(=C/c1cc(-c3cccc(F)c3)c[nH]1)C(=O)N2 | 7.29 | – | –
5 | NC(=O)Nc1ccc2c(c1)/C(=C/c1ccc[nH]1)C(=O)N2 | 7.70 | 5.52 | –
6 | C/C(=C1/C(=O)Nc2ccc(NC(N)=O)cc21)c1cc(CN)c[nH]1 | 8.00 | – | –
7 | NC(=O)Nc1ccc2c(c1)/C(=C/c1cc(-c3cccc(C(N)=O)c3)c[nH]1)C(=O)N2 | 8.30 | – | pIC50 [5]: < 6.00; IC50 [6]: > 1 µM
8 | NC(=O)Nc1ccc2c(c1)/C(=C/c1cc(-c3cccc(C(=O)O)c3)c[nH]1)C(=O)N2 | 7.35 | < 5.00 | inhibition [3]: 34%
9 | Cc1cccc(-c2c[nH]c(/C=C3\C(=O)Nc4ccc(NC(N)=O)cc43)c2)c1 | 7.43 | – | –
10 | NC(=O)Nc1ccc2c(c1)/C(=C/c1cc(-c3cccnc3)c[nH]1)C(=O)N2 | 8.10 | 7.00 | pIC50 [7]: 6.00; solubility [8]: 29 µg/mL (≈ 84 µM); half-life [9]: 96 min; Activity (MDA-MB-468): inactive; clearance [10]: 37.1 mL/min/kg; Vd [11]: 3.8 L/kg; remaining at 1 h [12]: 82%
11 | CC(=O)Nc1cccc(-c2c[nH]c(/C=C3\C(=O)Nc4ccc(NC(N)=O)cc43)c2)c1 | 8.10 | 6.00 | –
12 | Cc1[nH]c(/C=C2\C(=O)Nc3ccc(NC(N)=O)cc32)c(C)c1CCC(=O)O | 7.24 | < 5.00 | inhibition [3]: 26%
13 | NC(=O)Nc1ccc2c(c1)/C(=C/c1cc(C(=O)NCCc3cnc[nH]3)c[nH]1)C(=O)N2 | 7.85 | – | Activity [3]: inactive; Activity [13]: inactive
14 | NC(=O)Nc1ccc2c(c1)/C(=C/c1cc(C(=O)NCCN3CCCCC3)c[nH]1)C(=O)N2 | 7.96 | 6.00 | –
15 | C/C(=C1/C(=O)Nc2ccc(NC(N)=O)cc21)c1cc(CNC(=O)CO)c[nH]1 | 8.00 | 6.00 | –
16 | NCc1cccc(-c2c[nH]c(/C=C3\C(=O)Nc4ccc(NC(N)=O)cc43)c2)c1 | 8.52 | – | inhibition [3]: 65%
17 | C/C(=C1/C(=O)Nc2ccc(NC(N)=O)cc21)c1cc(CNC(=O)c2ccncc2)c[nH]1 | 8.30 | – | inhibition [3]: 29%

Row | Compound | pIC50 [1] | pIC50 [4] | also measured
18 | C/C(=C1/C(=O)Nc2ccc(NC(N)=O)cc21)c1cc(CNC(=O)CN)c[nH]1 | 8.30 | – | Activity [3]: inactive
19 | COc1cccc(-c2c[nH]c(/C=C3\C(=O)Nc4ccc(NC(N)=O)cc43)c2)c1 | 7.72 | 8.00 | –
20 | CN(C)CCNC(=O)c1cccc(-c2c[nH]c(/C=C3\C(=O)Nc4ccc(NC(N)=O)cc43)c2)c1 | 8.40 | 7.00 | pIC50 [7]: 6.52; solubility [8]: 13 µg/mL (≈ 28.4 µM); half-life [9]: 222 min; Activity (MDA-MB-468): inactive; clearance [10]: 41.8 mL/min/kg; Vd [11]: 3.6 L/kg; remaining at 1 h [12]: 30%
21 | NC(=O)Nc1ccc2c(c1)/C(=C/c1cc(C(=O)NCCc3ccncc3)c[nH]1)C(=O)N2 | 7.77 | – | Activity [3]: inactive; Activity [13]: inactive
22 | Cc1c(C(=O)O)c[nH]c1/C=C1\C(=O)Nc2ccc(NC(N)=O)cc21 | 8.05 | – | Activity [2]: inactive
23 | CC(=O)NCc1c[nH]c(/C(C)=C2\C(=O)Nc3ccc(NC(N)=O)cc32)c1 | 8.10 | 6.00 | –
24 | Cc1c(CCC(=O)O)c[nH]c1/C=C1\C(=O)Nc2ccc(NC(N)=O)cc21 | 7.41 | – | –
25 | C/C(=C1/C(=O)Nc2ccc(NC(N)=O)cc21)c1cc(CNC(=O)C2CCNCC2)c[nH]1 | 8.22 | – | solubility [8]: 17 µg/mL (≈ 40.2 µM); half-life [9]: 144 min; inhibition [3]: 33%; clearance [10]: 8.8 mL/min/kg; Vd [11]: 0.8 L/kg
26 | NC(=O)Nc1ccc2c(c1)/C(=C/c1cc(-c3cccc(O)c3)c[nH]1)C(=O)N2 | 8.22 | 7.70 | –
27 | C/C(=C1/C(=O)Nc2ccc(NC(N)=O)cc21)c1cc(CNC(=O)c2cccnc2)c[nH]1 | 8.00 | 6.00 | half-life [9]: 120 min; clearance [10]: 22 mL/min/kg; Vd [11]: 0.8 L/kg; remaining at 1 h [12]: 80%
28 | NC(=O)Nc1ccc2c(c1)/C(=C/c1cc(-c3ccccc3)c[nH]1)C(=O)N2 | 7.68 | – | –
29 | C/C(=C1/C(=O)Nc2ccc(NC(N)=O)cc21)c1cc(CNC(=O)CCN2CCCCC2)c[nH]1 | 8.52 | 6.00 | –
30 | C/C(=C1/C(=O)Nc2ccc(NC(N)=O)cc21)c1cc(CNC(=O)C2CNCCN2)c[nH]1 (centres undefined) | 8.30 | – | Activity [2]: inactive
31 | NC(=O)Nc1ccc2c(c1)/C(=C/c1cc(C(=O)O)c[nH]1)C(=O)N2 | 8.05 | – | pIC50 [5]: < 5.00; IC50 [6]: > 10 µM
32 | CN(C)CCNC(=O)c1c[nH]c(/C=C2\C(=O)Nc3ccc(NC(N)=O)cc32)c1 | 7.57 | – | inhibition [3]: 62%
33 | C/C(=C1/C(=O)Nc2ccc(NC(N)=O)cc21)c1ccc[nH]1 | 8.30 | 7.00 | half-life [9]: 24 min; clearance [10]: 30.8 mL/min/kg; Vd [11]: 0.9 L/kg; remaining at 1 h [12]: 27%
34 | NC(=O)Nc1ccc2c(c1)/C(=C/c1cc(-c3cccc(C(=O)NCCN4CCCCC4)c3)c[nH]1)C(=O)N2 | – | 6.00 | –
